We go through four molecules from US4062733A, “Radio-assay of oestrogen” (The Radiochemical Centre Limited, priority 1975, dated 1977).

Holding throughout (assay type): binding
The test system of test [1] is antiserum produced by immunising with oestrone-6-carbomethoxyoximethyroglobulin (Miles-Yeda). The test can be described thus: radioimmunoassay of oestrone, standard curve, Miles-Yeda antiserum. Conditions: Miles-Yeda antiserum as supplied, label age 23 days.
Test [2] deals with antiserum produced by immunising with an oestrone derivative coupled in the 6 position (The John Radcliffe Hospital, Oxford). The test can be described thus: radioimmunoassay of oestrone, standard curve, John Radcliffe Hospital antiserum. To be noted: J. Radcliffe Hosp. antiserum 1/32,000, label age 30 days.
Test [3] deals with antiserum produced by immunising with an oestradiol derivative coupled in the 6 position (The John Radcliffe Hospital, Oxford). The test can be described thus: radioimmunoassay of oestradiol, standard curve, John Radcliffe Hospital antiserum.
Test [4] deals with antiserum produced by immunising with oestradiol-6-carbomethoxyoxime-BSA (Miles-Yeda). Description: radioimmunoassay of oestradiol, standard curve, Miles-Yeda antiserum. Conditions: Miles-Yeda antiserum as supplied, label age 23 days.
In test [5] the test system is antiserum produced by immunising with oestriol-6-carbomethoxyoxime-BSA (antiserum B). The test can be described thus: radioimmunoassay of oestetrol, standard curve, antiserum B. To be noted: antiserum B 1/100, label age 7 days.
Test [6] relates to antiserum produced by immunising with oestriol-6-carbomethoxyoxime-BSA (antiserum A). Description: radioimmunoassay of oestetrol, standard curve, antiserum A. Conditions: antiserum A 1/100, label age 7 days.
Test [7] has as its system antiserum produced against oestriol conjugated to albumin (antiserum A). The test can be described thus: radioimmunoassay of oestriol, standard curve, antiserum A. The procedure:
(§1) In the assay, an accurately known volume of the biological fluid is incubated with a standard amount of the radio-iodinated oestrogen derivative and a standard amont of the specific reagent, e.g. antibody, insufficient to bind all the oestrogens present. The radio-iodinated oestrogen derivatives and the specific reagent may conveniently be provided in buffered solution containing horse serum. […] The radioactive concentration of the precipitate and/or the supernatant liquid is then counted by standard techniques. If an absolute determination is required, a calibration curve may be generated in the usual way by means of oestrogen, e.g. oestriol, solutions of known concentrations, conveniently also in horse serum.
(§2) Chloramine-T (0.5 mg in 100 μl water) is added to a stirred mixture of oestriol (50 μg in 400 ul ethanol) and Na^125 I (10mCi in 100 μl dilute NaOH), and the mixture is stirred for a further 5 minutes. Sodium metabisulphite (1.2 mg in 500 μl water) is then added and the mixture stirred for 5 minutes before 1 ml of 0.1 M HCl is added. The mixture is then vigorously stirred with 1 ml of chloroform. The aqueous layer is separated from the organic solvent, and the aqueous layer is re-extracted with a further 1 ml of chloroform. The pooled chloroform extracts are evaporated to dryness under a stream of nitrogen, and the residue is redissolved in 50 μl of ethanol. The ethanol solution of ^125 I -- labelled oestriol derivative is purified by chromatography and the product is diluted in phosphate buffer containing horse serum (10%), sodium azide (1 mg/ml) and gelatine (1 mg/ml) prior to use in the radioimmunoassay
(§3) Samples of 50 μl of standard solutions of oestriol in horse serum, or of the unknown human serum samples, are dispensed into plastic tubes. To each tube is added 200 μl of a solution of enzymes (extracted from the snail Helix pomatia) in sodium acetate buffer, pH 5, and the contents of the tubes are briefly mixed. The tubes are then stoppered and incubated in a water bath at 37° C for 2 hours. After the incubation, replicate 50 μl samples are taken from the hydrolysed serum and dispensed into plastic tubes. to each tube is added 200 μl of phosphate buffer containing 10% horse serum, sodium azide (1 mg/ml) gelatine (1 mg/ml), and the oestriol derivative labelled with ^125 I as described above (approximately 0.3 μCi/ml). Volumes of 200 μl of the phosphate buffer containing horse serum, sodium azide and gelatine, and containing a dilution of antiserum produced against oestriol conjugated to albumin are added to each tube, and the contents of the tubes are then mixed. The tubes are left at ambient temperature for 30 minutes, and 500 μl of an ammoniumm sulphate solution (5.4 g in 10 ml water) is then added to each tube. After mixing, the tubes are centrifuged, the supernatant liquid is removed by aspiration and the precipitates in the tubes are counted in a γ-counter.

Test [8] deals with antiserum produced against oestriol conjugated to albumin (antiserum B). Description: radioimmunoassay of oestriol, standard curve, antiserum B. Here is the method:
as §1, §2, §3

Setting [9] is: J. Radcliffe antiserum 1/640, label age 31 days.
The mark [10] stands for this setting: J. Radcliffe antiserum 1/3200, label age 30 days.

As to `C[C@]12CC[C@@H]3c4ccc(O)cc4CC[C@H]3[C@@H]1CCC2=O` [E1, oestrone], the “% Bound, 1ng oestrone” value in test [1] stood at 15.4%; in test [2], 11.2%.
Regarding `C[C@]12CC[C@@H]3c4ccc(O)cc4CC[C@H]3[C@@H]1CC[C@@H]2O` [E2, oestradiol], the “% Bound, 1ng E2” value in test [3] (setting [9]) turned out to be 32.7%; in test [3] (setting [10]), 3.0%; in test [4] it was 4.0%. The “% Bound, 2ng E2” value in test [3] (setting [9]) was found to be 13.1%; in test [3] (setting [10]), 0.5%.
Regarding `C[C@]12CC[C@@H]3c4ccc(O)cc4CC[C@H]3[C@@H]1[C@@H](O)[C@@H](O)[C@@H]2O` [E4, oestetrol], the results for the “% Binding in presence of 20ng E4” value in test [5] and in test [6] were 8.1% and 11.0%, respectively.
For `C[C@]12CC[C@@H]3c4ccc(O)cc4CC[C@H]3[C@@H]1C[C@@H](O)[C@@H]2O` [E3, Oestriol], the “% Bound, 50 ng E3” value is reported as 57.2% in test [7] (50 ng E3) and 55.2% in test [8] (50 ng E3). Besides, the “% Bound, 100 ng E3” value in test [7] (100 ng E3) and in test [8] (100 ng E3) was 47.3% throughout. Besides, the “% Bound, 200 ng E3” value in test [7] (200 ng E3) is reported as 32.6%; in test [8] (200 ng E3), 33.0%. The “% Bound, 350 ng E3” value in test [7] (350 ng E3) was determined as 23.0%; in test [8] (350 ng E3) it was 21.4%. Besides, the “% Bound, 500 ng E3” value was determined as 17.5% in test [7] (500 ng E3) and 17.3% in test [8] (500 ng E3).
